Results from ChEMBL document CHEMBL1157727, “Novel small molecule bradykinin B1 receptor antagonists. Part 1: benzamides and semicarbazides” (Bioorg Med Chem Lett, 2010).
In brackets after ≈: the same amount, converted by molar mass.

Tests used:
in vitro [1] = details: rat, microsomes
in vitro [2] = details: human, microsomes
physchem = details: buffer
in vivo [3] = details: Wistar, rat, po, 1 mg/kg
in vivo [4] = details: Wistar, rat, iv, 1 mg/kg
in vivo [5] = details: Wistar, rat, 1 mg/kg

SMILES | remaining at 1 h (in vitro [1]) [%] | remaining at 1 h (in vitro [2]) [%] | solubility (physchem) [µM] | bioavailability (in vivo [3]) [%] | clearance (in vivo [4]) [mL/min/kg] | half-life (in vivo [5]) [h]
C[C@@H]1CC[C@H](C)N1C(=O)c1ccc([C@@H](C)NC(=O)C2(NC(=O)c3cc(F)cc(C(F)(F)F)c3)CC2)c(F)c1 | 45 | 9 | 42 (≈ 22.6 µg/mL) | – | – | –
CCN(NC(=O)C(F)(F)F)C(=O)N[C@H](C)c1ncc(-c2cc(Cl)cc(Cl)c2OCC(F)F)cc1F | – | – | – | > 44 | 7 | 2.25
